As a reminder, the IC50 is the concentration that gives 50% inhibition.

“Also recorded” adds a separate entry of the source. Ends that are not written are not given here.

The target of assay [1] is T1, HLA-A^*11:01 (Homo sapiens, UniProt P04439, A114D/D185E/E176A/F33Y/L180Q/S129P/T187R). As to the kind of experiment: Peptide competitive binding assay (FITC-labeled reference peptide KVFPKALINK, flow cytometry) in HMy2.CIR cells expressing HLA-A^*11:01. Particulars: 24 h, 4°C; for shift in the fluorescence (flow cytometry): FITC-labeled reference peptide displaced; for 5 μM Inhibition (%): competitor 5 μM. For orientation: In flow cytometry, cells or beads pass a laser one at a time.

Assay [2] relates to T-cell responses. As to conditions: IFN-γ ELISPOT; HLA-A^*11:01 pair; cited from earlier work. The source says: (§1) A peptide sequence, ELQRREVYK, originating from the E6 oncoprotein of HPV type 52, has been recognized as an HLA-A^*11:01-restricted peptide through an in vitro peptide-binding assay. […] Considering the high prevalence of HLA-A^*11:01 allele (21.143%) in the Chinese pop ...

In assay [3] the target is T1, HLA-A^*11:01. As to conditions: in vitro peptide-binding assay; cited from earlier work.
From the text: as §1

The mark [4] stands for this setting: FITC-labeled reference peptide KVFPKALINK 300 nM, flow cytometry.

For ALQRREVYK [ALQRREVYK], the “shift in the fluorescence (flow cytometry)” value in assay [1] is “leftward shift in the fluorescence intensity”; in assay [1] (listed as mutated peptide) it was “leftward shift in the fluorescence peak”. The same sequence registered an IC50 in assay [1] (bracketed from 5 and 15 μM inhibition) of 5 to 15 µM. Further, the “5 μM Inhibition (%)” value in assay [1] (setting [4]) worked out at 44.83%. Moreover, the “15 μM Inhibition (%)” value in assay [1] (competitor 15 μM, FITC-labeled reference peptide KVFPKALINK 300 nM, flow cytometry) was 77.55%.

In the case of “ELQRREVYK [peptide originating from the E6 oncoprotein of HPV type 52]”, the T-cell response entry in assay [2] is listed as “does not elicit positive T-cell responses”. Further, the HLA restriction entry in assay [3] is on record as “HLA-A^*11:01-restricted”. The “shift in the fluorescence (flow cytometry)” value in assay [1] is reported as “does not exhibit a discernible shift; also recorded: no discernible shift”. Also, the “5 μM Inhibition (%)” value in assay [1] (setting [4]) came out at 24.21%.

The record behind these values is article PMC11107383, “Integrating Reinforcement Learning and Monte Carlo Tree Search for enhanced neoantigen vaccine design” (Briefings in Bioinformatics, 2024).
